Drawing on patent publication US20250066371A1, “FLUOROALKOXYALKYLENE-DIHYDROIMIDAZO[5,1-D]TETRAZINONE COMPOUNDS AND RELATED COMPOUNDS AND THEIR USE IN TREATING MEDICAL CONDITIONS” (priority 2023, published 2025), this text covers IC50 for 18 molecules.

Counter-ions that a name gives are not always drawn. Like-named read-outs stand apart in the source and are kept apart here. A value given as a limit tells only on which side of the number the result lay.

Holding throughout (assay type): cell-based
The test system of assay [1] is LN229 gliobastoma cells MGMT+/MMR−. In words: Anti-cancer assay, isogenic LN229 cells, nuclei count (Example 43). The settings on record: Homo sapiens, read-out: MGMT+ MMR− Activity. The source says:
(§1) Cytotoxicity of the compounds may be measured in short-term cell viability assays against four isogenic LN229 glioblastoma cell lines engineered to be proficient or deficient in MGMT and/or MMR activity by using short hairpin RNAs (shRNAs) targeting MSH2. This approach allows for determination of the relationship between MGMT status, MMR status, and compound activity. LN229 cells are maintained in Dulbecco's Modified Eagle Medium (DMEM) supplemented with 10% fetal bovine serum, 1% Penicillin/Streptomycin, and 0.1% Fungin. DAY 0: Cells are plated into sterile 96-well plates (Corning Costar 96-well) at a concentration of 500 cells/well using a Multichannel pipettor. Then, assay plates are incubated overnight in a 37° C. 5% CO2 incubator. DAY 1: Compounds are prepared as 50 mM stocks in dimethyl sulfoxide (DMSO) and stored protected from light at room temperature (RT) until use. Prior to compound addition, a two-fold serial dilution of compound stock solutions is performed in DMSO from 30 mM to 0.117 mM in a 96-well Master plate. Vehicle control wells contain DMSO. 97 μL of media is added to each well of a new 96-well plate (Daughter plate) and 3 μL of drug solution from Master plate is added to corresponding wells in the Daughter plate resulting in a 3× plate. Three replicate dilution curves of each compound are run on each assay plate. The final concentration of compounds ranges from 300 μM to 1.171 μM (9-point, 2-fold dilution dose response curve), and the final DMSO concentration is 1%.
(§2) Assay plates are incubated for 120 hours at 37° C. in a humidified 5% CO2 incubator. DAY 5: Following incubation, cells are fixed with 4% paraformaldehyde and stained with Hoechst dye for nuclei visualization. Fixation, staining and washing is performed by using a Thermo Scientific Multidrop Combi. Images are acquired on a BioTek Cytation 5 Cell Imaging Multimode Reader and quantified using Cell Profiler image analysis software. Raw cell count data for test compounds are normalized to percent viability relative to the DMSO vehicle control.
(§3) Isogenic LN229 gliobastoma cells were maintained in Dulbecco's Modified Eagle Medium (DMEM) supplemented with 10% fetal bovine serum, 1% Penicillin/Streptomycin, and 0.1% Fungin. DAY 0: Cells were plated into sterile 96-well plates (Corning Costar 96-well) at a concentration of 500 cells/well using a Multichannel pipettor. Then, assay plates were incubated overnight in a 37° C. 5% CO2 incubator. DAY 1: Compounds were prepared as 50 mM stocks in dimethyl sulfoxide (DMSO) and stored protected from light at room temperature (RT) until use. Prior to compound addition, a two-fold serial dilution of compound stock solutions was performed in DMSO from 30 mM to 0.117 mM in a 96-well Master plate. Vehicle control wells contained DMSO. 97 μL of media was added to each well of a new 96-well plate (Daughter plate) and 3 μL of drug solution from Master plate was added to corresponding wells in the Daughter plate resulting in a 3× plate. Three replicate dilution curves of each compound were run on each assay plate. The final concentration of compounds ranged from 300 μM to 1.171 μM (9-point, 2-fold dilution dose response curve), and the final DMSO concentration was 1%.
(§4) Assay plates were incubated for 120 hours at 37° C. in a humidified 5% CO2 incubator. DAY 5: Following incubation, cells were fixed with 4% paraformaldehyde and stained with Hoechst dye for nuclei visualization. Fixation, staining and washing was performed by using a Thermo Scientific Multidrop Combi. Images were acquired on a BioTek Cytation 5 Cell Imaging Multimode Reader and quantified using Cell Profiler image analysis software. Raw cell count data for test compounds were normalized to percent viability relative to the DMSO vehicle control.

Assay [2] has as its system LN229 gliobastoma cells MGMT+/MMR+. The assay is described as above. The note with it: Homo sapiens, read-out: MGMT+ MMR+ Activity.
Text: as §1, §2, §3, §4

The test system of assay [3] is LN229 gliobastoma cells MGMT−/MMR−. In words: Anti-cancer assay, isogenic LN229 cells, nuclei count (Examples 43, 46). The settings on record: Homo sapiens, read-out: MGMT− MMR− Activity.
Text: as §1, §2, §3
(§5) Assay plates were incubated for 120 hours at 37° C. in a humidified 5% CO2 incubator. DAY 5: Following incubation, cells were fixed with 4% paraformaldehyde and stained with Hoechst dye for nuclei visualization. Fixation, staining and washing was performed by using a Thermo Scientific Multidrop Combi. Images were acquired on a BioTek Cytation 5 Cell Imaging Multimode Reader and quantified using Cell Profiler image analysis software. Raw cell count data for test compounds were normalized to percent viability relative to the DMSO vehicle control. […]

Assay [4] relates to LN229 gliobastoma cells MGMT−/MMR+. The description is as above. The settings on record: Homo sapiens, read-out: MGMT− MMR+ Activity.
Text: as §1, §2, §3, §5

The mark [5] stands for this setting: LN-229, LN229 MGMT+/MMR−, 120 hours.
The mark [6] stands for this setting: LN-229, LN229 MGMT+/MMR+, 120 hours.
[7] abbreviates: LN-229, LN229 MGMT−/MMR−, 120 hours.
The mark [8] stands for this setting: LN-229, LN229 MGMT−/MMR+, 120 hours.

`CCNC(=O)c1ncn2c(=O)n(CCOC(F)(F)F)nnc12` [Compound I-3, N-Ethyl-4-oxo-3-(2-(trifluoromethoxy)ethyl)-3,4-dihydroimidazo[5,1-d][1,2,3,5]tetrazine-8-carboxamide]: the IC50 in assay [1] (LN-229, 120 h) is more than 100 µM; in assay [2] (LN-229, 120 h) it was more than 100 µM; in assay [3] (LN-229, 120 h) it was 50 to 100 µM; in assay [4] (LN-229, 120 h), 50 to 100 µM.
Turning to `CN(C)C(=O)c1ncn2c(=O)n(CCOC(F)(F)F)nnc12` [Compound I-4, N,N-Dimethyl-4-oxo-3-(2-(trifluoromethoxy)ethyl)-3,4-dihydroimidazo[5,1-d][1,2,3,5]tetrazine-8-carboxamide], the IC50 in assay [1] (setting [5]) lay in the range of 20 to 50 µM; in assay [2] (setting [6]), 50 to 100 µM; in assay [3] (setting [7]), 20 to 50 µM; in assay [4] (setting [8]) it was 20 to 50 µM.
Regarding `O=C(NC1CCCC1)c1ncn2c(=O)n(CCOC(F)(F)F)nnc12` [Compound I-5, N-Cyclopentyl-4-oxo-3-(2-(trifluoromethoxy)ethyl)-3,4-dihydroimidazo[5,1-d][1,2,3,5]tetrazine-8-carboxamide], the IC50 was more than 100 µM in assay [1] (setting [5]), more than 100 µM in assay [2] (setting [6]), 20 to 50 µM in assay [3] (setting [7]) and 50 to 100 µM in assay [4] (setting [8]).
Regarding `O=C(NC1CC1)c1ncn2c(=O)n(CCOC(F)(F)F)nnc12` [Compound I-6, N-Cyclopropyl-4-oxo-3-(2-(trifluoromethoxy)ethyl)-3,4-dihydroimidazo[5,1-d][1,2,3,5]tetrazine-8-carboxamide], the IC50 was less than 20 µM in assay [1] (setting [5]), 20 to 50 µM in assay [2] (setting [6]), 20 to 50 µM in assay [3] (setting [7]) and less than 20 µM in assay [4] (setting [8]).
Turning to `O=C(c1ncn2c(=O)n(CCOC(F)(F)F)nnc12)N1CCCC1` [Compound I-7, 8-(Pyrrolidine-1-carbonyl)-3-(2-(trifluoromethoxy)ethyl)imidazo[5,1-d][1,2,3,5]tetrazin-4(3H)-one], the IC50 in assay [1] (setting [5]) fell in the range of 50 to 100 µM; in assay [2] (setting [6]), 20 to 50 µM; in assay [3] (setting [7]) it was 20 to 50 µM; in assay [4] (setting [8]), 20 to 50 µM.
As to `O=C(Nc1ccccn1)c1ncn2c(=O)n(CCOC(F)(F)F)nnc12` [Compound I-8, 4-Oxo-N-(2-pyridyl)-3-[2-(trifluoromethoxy)ethyl]imidazo[5,1-d][1,2,3,5]tetrazine-8-carboxamide], the IC50 was more than 100 µM in assay [1] (setting [5]), more than 100 µM in assay [2] (setting [6]), 20 to 50 µM in assay [3] (setting [7]) and 50 to 100 µM in assay [4] (setting [8]).
For the molecule `O=C(Nc1ccccc1)c1ncn2c(=O)n(CCOC(F)(F)F)nnc12` [Compound I-9, 4-Oxo-N-phenyl-3-(2-(trifluoromethoxy)ethyl)-3,4-dihydroimidazo[5,1-d][1,2,3,5]tetrazine-8-carboxamide], the IC50 in assay [1] (LN-229, 120 h) was more than 100 µM; in assay [2] (LN-229, 120 h), 50 to 100 µM; in assay [3] (LN-229, 120 h), less than 20 µM; in assay [4] (LN-229, 120 h), 20 to 50 µM.
`CN1CCN(C(=O)c2ncn3c(=O)n(CCOC(F)(F)F)nnc23)CC1` [Compound I-10, 8-(4-Methylpiperazine-1-carbonyl)-3-(2-(trifluoromethoxy)ethyl)imidazo[5,1-d][1,2,3,5]tetrazin-4(3H)-one]: the IC50 in assay [1] (setting [5]) fell in the range of 50 to 100 µM; in assay [2] (setting [6]) it was 50 to 100 µM; in assay [3] (setting [7]), 20 to 50 µM; in assay [4] (setting [8]) it was 20 to 50 µM.
With `CN(C)CCN(C)C(=O)c1ncn2c(=O)n(CCOC(F)(F)F)nnc12` [Compound I-11, N-(2-(Dimethylamino)ethyl)-N-methyl-4-oxo-3-(2-(trifluoromethoxy)ethyl)-3,4-dihydroimidazo[5,1-d][1,2,3,5]tetrazine-8-carboxamide], the IC50 in assay [1] (LN-229, 120 h) is 50 to 100 µM; in assay [2] (LN-229, 120 h), 50 to 100 µM; in assay [3] (LN-229, 120 h), less than 20 µM; in assay [4] (LN-229, 120 h) it was less than 20 µM.
Take `NCCNC(=O)c1ncn2c(=O)n(CCOC(F)(F)F)nnc12` [Compound I-12, Hydrochloride Salt of N-(2-Aminoethyl)-4-oxo-3-(2-(trifluoromethoxy)ethyl)-3,4-dihydroimidazo[5,1-d][1,2,3,5]tetrazine-8-carboxamide]: the IC50 is more than 100 µM in assay [1] (setting [5]), more than 100 µM in assay [2] (setting [6]), 20 to 50 µM in assay [3] (setting [7]) and 50 to 100 µM in assay [4] (setting [8]).
For `NC(=O)c1ncn2c(=O)n(CCCOCC(F)(F)F)nnc12` [Compound I-22], the IC50 in assay [1] (setting [5]), in assay [2] (setting [6]), in assay [3] (setting [7]) and in assay [4] (setting [8]) was more than 100 µM each time.
On to `NC(=O)c1ncn2c(=O)n(COC(C(F)(F)F)C(F)(F)F)nnc12` [Compound I-23], for which the IC50 in assay [1] (setting [5]), in assay [2] (setting [6]), in assay [3] (setting [7]) and in assay [4] (setting [8]) was more than 100 µM each time.
For the molecule `CNC(=O)c1ncn2c(=O)n(CCOC(F)(F)F)nnc12` [Compound I-26], the IC50 in assay [1] (setting [5]) is more than 100 µM; in assay [2] (setting [6]), more than 100 µM; in assay [3] (setting [7]), less than 20 µM; in assay [4] (setting [8]), 20 to 50 µM.
With `[2H]C([2H])(OC(F)(F)F)C([2H])([2H])n1nnc2c(C(N)=O)ncn2c1=O` [Compound I-29, 4-Oxo-3-(2-(trifluoromethoxy)ethyl-1,1,2,2-d4)-3,4-dihydroimidazo[5,1-d][1,2,3,5]tetrazine-8-carboxamide], the IC50 in assay [1] (setting [5]) was more than 100 µM; in assay [2] (setting [6]), more than 100 µM; in assay [3] (setting [7]), less than 20 µM; in assay [4] (setting [8]) it was 20 to 50 µM.
Turning to `CCOC(=O)c1ncn2c(=O)n(CCOC(F)(F)F)nnc12` [Compound I-30, Ethyl 4-Oxo-3-(2-(trifluoromethoxy)ethyl)-3,4-dihydroimidazo[5,1-d][1,2,3,5]tetrazine-8-carboxylate], the IC50 in assay [1] (LN-229, 120 h) was more than 100 µM; in assay [2] (LN-229, 120 h), more than 100 µM; in assay [3] (LN-229, 120 h), less than 20 µM; in assay [4] (LN-229, 120 h) it was more than 100 µM.
Turning to `NC(=S)c1ncn2c(=O)n(CCOC(F)(F)F)nnc12` [Compound I-31, 4-Oxo-3-(2-(trifluoromethoxy)ethyl)-3,4-dihydroimidazo[5,1-d][1,2,3,5]tetrazine-8-carbothioamide], the IC50 in assay [1] (setting [5]) is more than 100 µM; in assay [2] (setting [6]), more than 100 µM; in assay [3] (setting [7]) it was less than 20 µM; in assay [4] (setting [8]) it was 20 to 50 µM.
For the molecule `N=C(N)c1ncn2c(=O)n(CCOC(F)(F)F)nnc12` [Compound I-34, 4-Oxo-3-(2-(trifluoromethoxy)ethyl)-3,4-dihydroimidazo[5,1-d][1,2,3,5]tetrazine-8-carboximidamide], the IC50 in assay [1] (setting [5]) was 50 to 100 µM; in assay [2] (setting [6]), 50 to 100 µM; in assay [3] (setting [7]), less than 20 µM; in assay [4] (setting [8]), less than 20 µM.
Consider `O=c1n(CCOC(F)(F)F)nnc2c(Cl)ncn12` [Compound I-39, 8-Chloro-3-(2-(trifluoromethoxy)ethyl)imidazo[5,1-d][1,2,3,5]tetrazin-4(3H)-one], for which the IC50 was 20 to 50 µM in assay [1] (setting [5]), less than 20 µM in assay [2] (setting [6]), less than 20 µM in assay [3] (setting [7]) and less than 20 µM in assay [4] (setting [8]).
